The assay has as its system microfilariae of Dirofilaria immitis. As to the kind of experiment: Dirofilaria immitis, Microfilaria (DiMF) In vitro Assay. As to conditions: 72 h, read-out: DiMF Minimum Effective Dose (MED), approximately 72 hours incubation, microfilariae assessed for survival or paralysis. In kind it is cell-based.

Turning to `CC(C)C[C@H]1C(=O)O[C@H](Cc2ccc(Cn3cc(C#CC(C)(C)C)cn3)cc2)C(=O)N(C)[C@@H](CC(C)C)C(=O)O[C@H](C)C(=O)N(C)[C@@H](CC(C)C)C(=O)O[C@H](Cc2ccccc2)C(=O)N(C)[C@@H](CC(C)C)C(=O)O[C@H](C)C(=O)N1C` [Example 2-71, (3S,6R,9S,12R,15S,18R,21S,24R)-6-benzyl-18-(4-((4-(3,3-dimethylbut-1-yn-1-yl)-1H-pyrazol-1-yl)methyl)benzyl)-3,9,15,21-tetraisobutyl-4,10,12,16,22,24-hexamethyl-1,7,13,19-tetraoxa-4,10,16,22-tetraazacyclotetracosan-2,5,8,11,14,17,20,23-octaone], the minimal effective concentration was 0.01 to 0.1 µM.

As to `CC(C)C[C@H]1C(=O)O[C@H](Cc2ccc(Cn3ccc(C(C)(C)C)n3)cc2)C(=O)N(C)[C@@H](CC(C)C)C(=O)O[C@H](C)C(=O)N(C)[C@@H](CC(C)C)C(=O)O[C@H](Cc2ccccc2)C(=O)N(C)[C@@H](CC(C)C)C(=O)O[C@H](C)C(=O)N1C` [Example 2-72, (3S,6R,9S,12R,15S,18R,21S,24R)-6-benzyl-18-(4-((3-(tert-butyl)-1H-pyrazol-1-yl)methyl)benzyl)-3,9,15,21-tetraisobutyl-4,10,12,16,22,24-hexamethyl-1,7,13,19-tetraoxa-4,10,16,22-tetraazacyclotetracosan-2,5,8,11,14,17,20,23-octaone], the minimal effective concentration lay in the range of 0.01 to 0.1 µM.

Take `CC(C)C[C@H]1C(=O)O[C@H](Cc2ccc(Cn3cc(C#CC4CC4)cn3)cc2)C(=O)N(C)[C@@H](CC(C)C)C(=O)O[C@H](C)C(=O)N(C)[C@@H](CC(C)C)C(=O)O[C@H](Cc2ccccc2)C(=O)N(C)[C@@H](CC(C)C)C(=O)O[C@H](C)C(=O)N1C` [Example 2-75, (3S,6R,9S,12R,15S,18R,21S,24R)-6-benzyl-18-(4-((4-(cyclopropylethynyl)-1H-pyrazol-1-yl)methyl)benzyl)-3,9,15,21-tetraisobutyl-4,10,12,16,22,24-hexamethyl-1,7,13,19-tetraoxa-4,10,16,22-tetraazacyclotetracosan-2,5,8,11,14,17,20,23-octaone]: the minimal effective concentration is 0.001 to 0.01 µM.

`Cc1nn(Cc2ccc(C[C@H]3OC(=O)[C@H](CC(C)C)N(C)C(=O)[C@@H](C)OC(=O)[C@H](CC(C)C)N(C)C(=O)[C@@H](Cc4ccccc4)OC(=O)[C@H](CC(C)C)N(C)C(=O)[C@@H](C)OC(=O)[C@H](CC(C)C)N(C)C3=O)cc2)c(C)c1C#N` [Example 2-78, 1-(4-(((2R,5S,8R,11S,14R,17S,20R,23S)-14-benzyl-5,11,17,23-tetraisobutyl-4,8,10,16,20,22-hexamethyl-3,6,9,12,15,18,21,24-octaoxo-1,7,13,19-tetraoxa-4,10,16,22-tetraazacyclotetracosan-2-yl)methyl)benzyl)-3,5-dimethyl-1H-pyrazole-4-carbonitrile]: the minimal effective concentration was 0.01 to 0.1 µM.

On to `Cc1nn(Cc2ccc(C[C@H]3OC(=O)[C@H](CC(C)C)N(C)C(=O)[C@@H](C)OC(=O)[C@H](CC(C)C)N(C)C(=O)[C@@H](Cc4ccccc4)OC(=O)[C@H](CC(C)C)N(C)C(=O)[C@@H](C)OC(=O)[C@H](CC(C)C)N(C)C3=O)cc2)c(C)c1C(F)(F)F` [Example 2-81, (3S,6R,9S,12R,15S,18R,21S,24R)-6-benzyl-18-(4-((3,5-dimethyl-4-(trifluoromethyl)-1H-pyrazol-1-yl)methyl)benzyl)-3,9,15,21-tetraisobutyl-4,10,12,16,22,24-hexamethyl-1,7,13,19-tetraoxa-4,10,16,22-tetraazacyclotetracosan-2,5,8,11,14,17,20,23-octaone], for which the minimal effective concentration fell in the range of 0.01 to 0.1 µM.

Consider `CCc1nn(Cc2ccc(C[C@H]3OC(=O)[C@H](CC(C)C)N(C)C(=O)[C@@H](C)OC(=O)[C@H](CC(C)C)N(C)C(=O)[C@@H](Cc4ccccc4)OC(=O)[C@H](CC(C)C)N(C)C(=O)[C@@H](C)OC(=O)[C@H](CC(C)C)N(C)C3=O)cc2)c(CC)c1[N+](=O)[O-]` [Example 2-82, (3S,6R,9S,12R,15S,18R,21S,24R)-6-benzyl-18-(4-((3,5-diethyl-4-nitro-1H-pyrazol-1-yl)methyl)benzyl)-3,9,15,21-tetraisobutyl-4,10,12,16,22,24-hexamethyl-1,7,13,19-tetraoxa-4,10,16,22-tetraazacyclotetracosan-2,5,8,11,14,17,20,23-octaone], for which the minimal effective concentration lay in the range of 0.01 to 0.1 µM.

For the compound `CC(C)C[C@H]1C(=O)O[C@H](Cc2ccc(Cn3ccc(C(C)C)n3)cc2)C(=O)N(C)[C@@H](CC(C)C)C(=O)O[C@H](C)C(=O)N(C)[C@@H](CC(C)C)C(=O)O[C@H](Cc2ccccc2)C(=O)N(C)[C@@H](CC(C)C)C(=O)O[C@H](C)C(=O)N1C` [Example 2-83, (3S,6R,9S,12R,15S,18R,21S,24R)-6-benzyl-3,9,15,21-tetraisobutyl-18-(4-((3-isopropyl-1H-pyrazol-1-yl)methyl)benzyl)-4,10,12,16,22,24-hexamethyl-1,7,13,19-tetraoxa-4,10,16,22-tetraazacyclotetracosan-2,5,8,11,14,17,20,23-octaone], the minimal effective concentration fell in the range of 0.01 to 0.1 µM.

With `CC(C)C[C@H]1C(=O)O[C@H](Cc2ccc(Cn3cc(-c4cn(C)nn4)cn3)cc2)C(=O)N(C)[C@@H](CC(C)C)C(=O)O[C@H](C)C(=O)N(C)[C@@H](CC(C)C)C(=O)O[C@H](Cc2ccccc2)C(=O)N(C)[C@@H](CC(C)C)C(=O)O[C@H](C)C(=O)N1C` [Example 2-84, (3S,6R,9S,12R,15S,18R,21S,24R)-6-benzyl-3,9,15,21-tetraisobutyl-4,10,12,16,22,24-hexamethyl-18-(4-((4-(1-methyl-1H-1,2,3-triazol-4-yl)-1H-pyrazol-1-yl)methyl)benzyl)-1,7,13,19-tetraoxa-4,10,16,22-tetraazacyclotetracosan-2,5,8,11,14,17,20,23-octaone], the minimal effective concentration was 0.01 to 0.1 µM.

For the compound `CC(C)C[C@H]1C(=O)O[C@H](Cc2ccc(Cn3nc(C4CC4)c(N)c3C3CC3)cc2)C(=O)N(C)[C@@H](CC(C)C)C(=O)O[C@H](C)C(=O)N(C)[C@@H](CC(C)C)C(=O)O[C@H](Cc2ccccc2)C(=O)N(C)[C@@H](CC(C)C)C(=O)O[C@H](C)C(=O)N1C` [Example 2-85, (3S,6R,9S,12R,15S,18R,21S,24R)-6-(4-((4-amino-3,5-dicyclopropyl-1H-pyrazol-1-yl)methyl)benzyl)-18-benzyl-3,9,15,21-tetraisobutyl-4,10,12,16,22,24-hexamethyl-1,7,13,19-tetraoxa-4,10,16,22-tetraazacyclotetracosan-2,5,8,11,14,17,20,23-octaone], the minimal effective concentration lay in the range of 0.01 to 0.1 µM.

Take `CCc1nn(Cc2ccc(C[C@H]3OC(=O)[C@H](CC(C)C)N(C)C(=O)[C@@H](C)OC(=O)[C@H](CC(C)C)N(C)C(=O)[C@@H](Cc4ccccc4)OC(=O)[C@H](CC(C)C)N(C)C(=O)[C@@H](C)OC(=O)[C@H](CC(C)C)N(C)C3=O)cc2)c(CC)c1N` [Example 2-86, (3S,6R,9S,12R,15S,18R,21S,24R)-6-(4-((4-amino-3,5-diethyl-1H-pyrazol-1-yl)methyl)benzyl)-18-benzyl-3,9,15,21-tetraisobutyl-4,10,12,16,22,24-hexamethyl-1,7,13,19-tetraoxa-4,10,16,22-tetraazacyclotetracosan-2,5,8,11,14,17,20,23-octaone]: the minimal effective concentration fell in the range of 0.01 to 0.1 µM.

Turning to `CC(C)C[C@H]1C(=O)O[C@H](Cc2ccc(Cn3ccc(C4CCCC4)n3)cc2)C(=O)N(C)[C@@H](CC(C)C)C(=O)O[C@H](C)C(=O)N(C)[C@@H](CC(C)C)C(=O)O[C@H](Cc2ccccc2)C(=O)N(C)[C@@H](CC(C)C)C(=O)O[C@H](C)C(=O)N1C` [Example 2-88, (3S,6R,9S,12R,15S,18R,21S,24R)-6-benzyl-18-(4-((3-cyclopentyl-1H-pyrazol-1-yl)methyl)benzyl)-3,9,15,21-tetraisobutyl-4,10,12,16,22,24-hexamethyl-1,7,13,19-tetraoxa-4,10,16,22-tetraazacyclotetracosan-2,5,8,11,14,17,20,23-octaone], the minimal effective concentration fell in the range of 0.01 to 0.1 µM.

In the case of `CC(C)C[C@H]1C(=O)O[C@H](Cc2cccc(Cn3cccn3)c2)C(=O)N(C)[C@@H](CC(C)C)C(=O)O[C@H](C)C(=O)N(C)[C@@H](CC(C)C)C(=O)O[C@H](Cc2cccc(Cn3cccn3)c2)C(=O)N(C)[C@@H](CC(C)C)C(=O)O[C@H](C)C(=O)N1C` [Example 4-1, (3S,6R,9S,12R,15S,18R,21S,24R)-6,18-bis(3-((1H-pyrazol-1-yl)methyl)benzyl)-3,9,15,21-tetraisobutyl-4,10,12,16,22,24-hexamethyl-1,7,13,19-tetraoxa-4,10,16,22-tetraazacyclotetracosan-2,5,8,11,14,17,20,23-octaone], the minimal effective concentration lay within 0.001 to 0.01 µM.

With `COc1cnn(Cc2cccc(C[C@H]3OC(=O)[C@H](CC(C)C)N(C)C(=O)[C@@H](C)OC(=O)[C@H](CC(C)C)N(C)C(=O)[C@@H](Cc4cccc(Cn5cc(OC)cn5)c4)OC(=O)[C@H](CC(C)C)N(C)C(=O)[C@@H](C)OC(=O)[C@H](CC(C)C)N(C)C3=O)c2)c1` [Example 4-9, (3S,6R,9S,12R,15S,18R,21S,24R)-3,9,15,21-tetraisobutyl-6,18-bis(3-((4-methoxy-1H-pyrazol-1-yl)methyl)benzyl)-4,10,12,16,22,24-hexamethyl-1,7,13,19-tetraoxa-4,10,16,22-tetraazacyclotetracosan-2,5,8,11,14,17,20,23-octaone], the minimal effective concentration is 0.01 to 0.1 µM.

For the compound `CC(C)C[C@H]1C(=O)O[C@H](Cc2cccc(Cn3nc(C#N)cc3C#N)c2)C(=O)N(C)[C@@H](CC(C)C)C(=O)O[C@H](C)C(=O)N(C)[C@@H](CC(C)C)C(=O)O[C@H](Cc2cccc(Cn3nc(C#N)cc3C#N)c2)C(=O)N(C)[C@@H](CC(C)C)C(=O)O[C@H](C)C(=O)N1C` [Example 4-14, 1,1′-(((((2R,5S,8R,11S,14R,17S,20R,23S)-5, 11,17,23-tetraisobutyl-4,8,10,16,20,22-hexamethyl-3,6,9,12,15,18,21,24-octaoxo-1,7,13,19-tetraoxa-4,10,16,22-tetraazacyclotetracosane-2,14-diyl)bis(methylene))bis(3,1-phenylene))bis(methylene))bis(1H-pyrazole-3,5-dicarbonitrile)], the minimal effective concentration lay within 0.001 to 0.01 µM.
